From PMC2918917 (New journal of chemistry = Nouveau journal de chimie, 2010)
Read-outs that look alike come from different tables or passages of the source.

How the values were obtained:
[1] = system: cultured mouse mammary cells; details: cited from earlier work
[2] = system: microRNA-mediated translational repression; details: cited from earlier work; for enhancement of microRNA-mediated translational repression: Drosophila melanogaster embryos extract
[3] = system: rabbit reticulocyte lysate (RRL) system; details: cited from earlier work
[4] = target: T1, human DcpS (Homo sapiens, UniProt Q96C86); assay: hDcpS assay: enzymatic hydrolysis of cap analogs monitored by RP HPLC; details: positive control; cleavage to m^7GMP and GDP; amount of DcpS adjusted
T1 sequence (Q96C86 1-337): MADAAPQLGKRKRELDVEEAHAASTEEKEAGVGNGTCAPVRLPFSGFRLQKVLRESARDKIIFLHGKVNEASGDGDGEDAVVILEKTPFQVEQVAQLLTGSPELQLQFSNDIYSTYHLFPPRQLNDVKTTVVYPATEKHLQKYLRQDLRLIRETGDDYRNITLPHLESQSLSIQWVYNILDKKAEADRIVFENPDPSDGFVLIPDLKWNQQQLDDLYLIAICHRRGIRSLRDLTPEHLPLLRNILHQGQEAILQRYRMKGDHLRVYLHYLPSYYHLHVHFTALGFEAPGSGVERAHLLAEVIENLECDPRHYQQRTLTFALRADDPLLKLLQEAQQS

[5] = target: hDcp2 (Homo sapiens, UniProt Q8IU60); assay: In vitro decapping of capped mRNA by hDcp2; assay type: biochemical; details: mRNA capped with D1 plus D2 mixture; preliminary results, unpublished work [21]
[6] = system: cultured cells; details: cited from earlier work

CO[C@@H]1[C@H](O)[C@@H](COP(=O)(O)OP(O)(=S)OP(=O)(O)OC[C@H]2O[C@@H](n3cnc4c(=O)[nH]c(N)nc43)[C@H](O)[C@@H]2O)O[C@H]1n1c[n+](C)c2c(=O)[nH]c(N)nc21 (stereo partly drawn) [m2^7,2’-OGppSpG (D2)]
translation efficiency relative to m2^7,2’-OGpppG-capped mRNA [1]: 2.4

COC1C(O)C(COP(=O)(O)OP(=O)(O)OP(O)(=S)OCC2OC(n3cnc4c(=O)[nH]c(N)nc43)C(O)C2O)OC1n1c[n+](C)c2c(=O)[nH]c(N)nc21 (stereo not drawn) [m2^7,2’-OGpppSG (D2)]
enhancement of microRNA-mediated translational repression [2]: 2 fold
enhancement of microRNA-mediated translational repression ([2]; listed as m2^7,2'-OGpppSG (D2)): ~ 2 fold
effect on general cap-dependent translation [2]: no change
effect on general cap-dependent translation ([2]; listed as m2^7,2'-OGpppSG (D2)): neutral

COC1C(COP(=O)([O-])OP(=O)(O)OP(=O)(O)OP(=O)(O)OP(=O)(O)OCC2OC(n3cnc4c(=O)[nH]c(N)nc43)C(O)C2O)OC(n2c[n+](C)c3c(=O)[nH]c(N)nc32)C1O (stereo not drawn) [m2^7,3'-OGp5G]
translation efficiency of mRNA capped with pentaphosphate analog [3]: not effective in promoting translation

C[n+]1cn(C2OC(COP(=O)([O-])OP(=O)(O)OP(=O)(O)OP(=O)(O)OP(=O)(O)OP(=O)(O)OCC3OC(n4cnc5c(=O)[nH]c(N)nc54)C(O)C3O)C(O)C2O)c2nc(N)[nH]c(=O)c21 (stereo not drawn) [m^7Gp6G]
enhancement of microRNA-mediated translational repression [2]: ~ 2 fold
effect on general cap-dependent translation [2]: neutral

Cn1c[n+]([C@@H]2O[C@H](COP(=O)(O)OP(=O)([O-])OP(=O)(O)OC[C@H]3O[C@@H](n4cnc5c(=O)[nH]c(N)nc54)[C@H](O)[C@@H]3O)[C@@H](O)[C@H]2O)c2nc(N)[nH]c(=O)c21 [m^7GpppG]
time to complete cleavage by DcpS [4]: less than 15 min

P1-(7,2'-O-dimethylguanosin-5'-y l ) P4-guanosin-5'-yl (3-thiotetraphosphate) [compound 2]
susceptibility of capped mRNA to in vitro decapping by hDcp2 [5]: resistant

m2^7,3'-OGppCH2pG
half-life of capped mRNA transfected into cultured cells [6]: prolonged half-life
translation of capped mRNA versus regular ARCA [6]: translated even less efficiently
